Data published in publication PMC7177833, “2-Aminopyridine Analogs Inhibit Both Enzymes of the Glyoxylate Shunt in Pseudomonas aeruginosa” (International Journal of Molecular Sciences, 2020).

Legend:
[1] = target: T1, CYP2C19 (Homo sapiens, UniProt P33261); assay: CYP450 inhibition in HLM, mephenytoin probe; assay type: in vitro ADME
T1 construct: pooled human liver microsomes; tissue BioIVT; host or cells: pooled human liver microsomes
Method: The CYP450 inhibition was determined by measuring the reaction products of known CYP450 substrates (probes). […] These probe solutions were dispensed (195 µL) into clear 96-well plates with low evaporation lids (Corning, Turin, Italy) and the plates were prewarmed to 37 °C in a thermomixer (Hamilton, Agrate Brianza, Italy). Next, 5 µL of the test compound or appropriate positive control (Table S4) were added to the wells and the plates were incubated for a further 5 min. Following this, the reactions were started by adding NADPH regenerating solution (50 µL, see previous Section 4.7) to each well. CYP450 mixtures containing phenacetin, rosiglitazone, mephenytoin, atorvastatin, and nifedipine probes were incubated for 10 min at 37 °C, whereas those with midazolam and diclofenac were incubated for 5 min at 37 °C. […]
Probe products were analyzed on an API4000 Qtrap mass spectrometer (Applied Biosystems/MDS SCIEX, Monza, Italy) coupled with an Acquity UPLC system (Waters, Milan, Italy) and a CTC-PAL auto-injector (CTC Analytics AG, Zwingen, Switzerland). […] The analytes were quantified in multiple reaction-monitoring mode. Data were processed, and the percentage control activity was calculated based on a comparison between the ratio of the sample peak area and the peak area.

[2] = target: T2, ICLPa (Pseudomonas aeruginosa, UniProt Q9I0K4); assay: Kinetic mode of action on ICLPa; assay type: biochemical; set-up: made in house; conditions: isocitrate titrated; uncompetitive model, GraphPad Prism
T2 sequence (Q9I0K4 1-531): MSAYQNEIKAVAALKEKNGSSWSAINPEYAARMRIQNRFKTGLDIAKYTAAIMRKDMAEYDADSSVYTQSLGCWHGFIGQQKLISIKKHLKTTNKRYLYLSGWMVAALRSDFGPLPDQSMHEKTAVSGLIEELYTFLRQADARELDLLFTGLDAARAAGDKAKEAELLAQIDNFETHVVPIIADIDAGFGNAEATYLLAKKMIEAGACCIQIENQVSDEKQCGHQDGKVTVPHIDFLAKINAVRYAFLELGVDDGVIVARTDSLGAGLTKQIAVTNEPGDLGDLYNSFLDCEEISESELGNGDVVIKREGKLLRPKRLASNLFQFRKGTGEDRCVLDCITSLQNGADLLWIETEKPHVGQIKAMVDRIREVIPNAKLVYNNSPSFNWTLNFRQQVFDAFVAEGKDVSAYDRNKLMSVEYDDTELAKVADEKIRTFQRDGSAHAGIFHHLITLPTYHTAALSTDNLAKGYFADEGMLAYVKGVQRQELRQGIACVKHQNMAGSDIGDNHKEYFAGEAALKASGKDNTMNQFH
Method: The enzymatic activity of purified ICLPa and MSPa was assayed essentially as previously described. Compounds were added to the reaction mixtures (minus substrates) and incubated for 5 min at 37 °C. The enzyme concentration in the reaction mixtures was 170 nM for ICL and 25 nM for MS (based on the concentration of the monomer in each case). […] The reactions were initiated by the addition of pH-adjusted substrates, and the initial rates were recorded as A324 nm (for ICLPa) and A412 nm (for MSPa) using a Biospectrometer (Eppendorf, Stevenage, UK). Substrate turnover was calculated from the molar extinction coefficient of the assay products: Glyoxylate-phenylhydrazone (16,800/M/cm) for ICLPa and 2-nitro-5-thiobenzoic acid (14,150/M/cm) for MSPa.
The mode of action of SB002 on MSPa and ICLPa was determined by titrating the respective substrates of each enzyme in the presence of three fixed concentrations of SB002 (selected to lie around the measured IC50 value) and measuring the reaction rates as outlined in Section 4.3. Double-reciprocal plots and best-fit inhibition models (GraphPad Prism v. 7.04) were used to assess the mode of inhibition. Inhibition constants were calculated using GraphPad Prism v. 7.04 (GraphPad Software, Inc., La Jolla, CA, USA). Each data point represents the mean ± SD for three independent replicates.

T1 sequence (P33261 whole entry): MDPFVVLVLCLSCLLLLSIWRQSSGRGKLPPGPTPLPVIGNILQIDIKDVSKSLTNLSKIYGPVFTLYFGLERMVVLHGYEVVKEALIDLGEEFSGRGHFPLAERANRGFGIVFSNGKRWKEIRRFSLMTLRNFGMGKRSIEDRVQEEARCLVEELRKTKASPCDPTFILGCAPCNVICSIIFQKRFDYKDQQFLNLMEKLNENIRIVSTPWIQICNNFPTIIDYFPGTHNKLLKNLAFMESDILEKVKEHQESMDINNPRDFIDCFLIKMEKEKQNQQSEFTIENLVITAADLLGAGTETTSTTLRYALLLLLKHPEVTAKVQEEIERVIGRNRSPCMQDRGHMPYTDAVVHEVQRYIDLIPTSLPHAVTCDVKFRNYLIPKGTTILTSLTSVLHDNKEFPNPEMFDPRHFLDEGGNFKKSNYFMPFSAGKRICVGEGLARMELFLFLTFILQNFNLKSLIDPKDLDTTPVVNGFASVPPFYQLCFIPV

## CC(C)(C)OC(=O)/N=C(\NC(=O)OC(C)(C)C)Nc1cc(Cl)ccn1 [SB002]
[1]
  IC50 CYP450 2C19: some evidence of interacting with the turnover of mephenytoin
[1]; read-out: IC50 CYP450 2C19
  IC50: 126 µM
[2]
  Ki’ (inhibition constant for binding to the enzyme-substrate complex), ICLPa: 21.3 µM
